The record followed here is PMC7894407, “Rapid conversion of isoprene photooxidation products in terrestrial plants” (Communications earth & environment, 2020).

Assay [1] concerns T1, poplar AOR (EC 1.3.1.74), alkenal/one oxidoreductase.
T1 construct: gene AORchl; native enzyme in desalted (Sephadex G-25 PD-10) crude leaf protein extract, not purified; AORchl predominantly expressed in leaf, AORcyt-II in stem; active isoenzyme not determined
Put plainly: NADPH consumption at A340 nm, NADPH varied, leaf protein extract. The assay is classed as biochemical, Populus x canescens. The conditions noted are these: co-substrate MVK; apparent in vitro, crude leaf extract; 50 mM Tris/HCl, 20 mM MgCl2, 5% glycerol, 2 mM DTT; read-out: Michaelis-Menten constant.

The test system is the same in assay [2]. Put plainly: NADPH consumption at A340 nm, MVK varied, leaf protein extract. The assay is classed as biochemical, Populus x canescens. Conditions: co-substrate NADPH; apparent in vitro, crude leaf extract; 50 mM Tris/HCl, 20 mM MgCl2, 5% glycerol, 2 mM DTT; read-out: Michaelis-Menten constant.

On to `NC(=O)C1=CN([C@@H]2O[C@H](COP(=O)(O)OP(=O)(O)OC[C@H]3O[C@@H](n4cnc5c(N)ncnc54)[C@H](OP(=O)(O)O)[C@@H]3O)[C@@H](O)[C@H]2O)C=CC1` [NADPH], for which the Km in assay [1] came to 0.049 mM.

`C=CC(C)=O` [MVK]: in assay [2], the Km turned out to be 14.1 mM.
